# Results reported in patent publication US12091411B2, “IRAK degraders and uses thereof” (Kymera Therapeutics, Inc., priority 2022, dated 2024).
# Like-named read-outs stand apart in the source and are kept apart here.
# Target: T1, IRAK4 (Homo sapiens, UniProt Q9NWZ3)
# T1 construct: Degradation of IRAK4 in OCI-LY10 was quantitatively measured using Meso Scale Discovery technology; endogenous in cells; host or cells: OCI-LY10
# T1 sequence (Q9NWZ3 1-460): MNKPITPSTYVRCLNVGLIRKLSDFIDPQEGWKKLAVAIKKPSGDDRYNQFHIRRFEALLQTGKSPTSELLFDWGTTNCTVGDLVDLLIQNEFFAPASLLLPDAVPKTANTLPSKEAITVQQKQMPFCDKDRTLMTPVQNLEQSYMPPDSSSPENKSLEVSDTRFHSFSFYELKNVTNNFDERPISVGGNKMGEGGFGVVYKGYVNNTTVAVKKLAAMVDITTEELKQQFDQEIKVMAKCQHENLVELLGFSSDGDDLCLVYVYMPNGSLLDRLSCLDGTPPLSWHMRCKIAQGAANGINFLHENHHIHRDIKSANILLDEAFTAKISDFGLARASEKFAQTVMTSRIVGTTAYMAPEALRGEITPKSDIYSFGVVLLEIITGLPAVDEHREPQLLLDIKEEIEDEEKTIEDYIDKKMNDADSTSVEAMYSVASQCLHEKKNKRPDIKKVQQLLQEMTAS
# Assay: IRAK4 MSD Degradation in OCI-LY10
# Assay type: cell-based
# Details: OCI-LY10 cells
# Outline: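 OCI-LY10 cells exposed to 8-point 1:3 compound series (top 1 to 10 μM) for 4 to 24 h at 37 °C, 5% CO2. Lysate IRAK4 quantified by MSD sandwich immunoassay. DC50 from three-parameter logistic fit, binned A (<0.01 μM) to D (>0.2 μM or not tested).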
# [1] = 4 hrs incubation, MSD, read-out: IRAK4 degradation in OCI-LY10 at 4 hrs: DC50
# [2] = 24 hrs incubation, MSD, read-out: IRAK4 degradation in OCI-LY10 at 24 hrs: DC50
Compound,DC50 [1],DC50 [2],"DC50 (4 hrs incubation, read-out: IRAK4 degradation in OCI-LY10 at 4 hrs: DC50)","DC50 (24 hrs incubation, read-out: IRAK4 degradation in OCI-LY10 at 24 hrs: DC50)"
Cn1c(=O)n(C2CCC(=O)NC2=O)c2cccc(C3CCN(C[C@]4(O)CC[C@@H](n5cc6cc(NC(=O)c7cccc(C(F)(F)F)n7)ccc6n5)CC4)CC3)c21 (some centres unmarked) [I-461],> 200 nM,> 200 nM,,
COc1cc2nn([C@H]3CC[C@H](CN4CCC5(CC4)CCN(c4cccc6c4n(C)c(=O)n6C4CCC(=O)NC4=O)CC5)CC3)cc2cc1NC(=O)c1cncc(SC(F)(F)F)c1 (some centres unmarked) [I-152],> 200 nM,> 200 nM,,
CN(CCCCNc1cccc2c1C(=O)N(C1CCC(=O)NC1=O)C2=O)C[C@H]1CC[C@H](n2cc3cc(NC(=O)c4cccc(C(F)(F)F)n4)c(C(C)(C)O)cc3n2)CC1 (some centres unmarked) [I-145],< 10 nM,< 10 nM,,
CC1CN(c2ccn3ncc(C(=O)Nc4cn([C@H]5CC[C@H](CN6CCN(CC#Cc7cccc8c7n(C)c(=O)n8C7CCC(=O)NC7=O)CC6)CC5)nc4C(F)F)c3n2)CC(C)O1 (some centres unmarked) [I-289],> 200 nM,> 200 nM,,
COc1ccc([C@H]2CC[C@H](CN3CCC(OCC#Cc4cccc5c4n(C)c(=O)n5C4CCC(=O)NC4=O)CC3)CC2)cc1NC(=O)c1cnn2ccc(N3C[C@H]4C[C@@H]3CO4)nc12 (some centres unmarked) [I-177],> 200 nM,> 200 nM,,
Cn1c(=O)n(C2CCC(=O)NC2=O)c2cccc(N3CCN(C[C@H]4CC[C@H](n5cc(NC(=O)c6cnn7cccnc67)c(C(F)F)n5)CC4)CC3)c21 (some centres unmarked) [I-403],> 200 nM,> 200 nM,,
Cn1c(=O)n(C2CCC(=O)NC2=O)c2cccc(C#CCN3CCN(C[C@H]4CC[C@H](n5cc(NC(=O)c6cnn7ccc([C@@H]8CCOC8)nc67)c(C(F)F)n5)CC4)CC3)c21 (some centres unmarked) [I-353],> 200 nM,> 200 nM,,
Cn1c(=O)n(C2CCC(=O)NC2=O)c2cccc(C#CCOC3CCN(Cc4ccc(-n5cc(NC(=O)c6cnn7ccc(N8C[C@H]9C[C@@H]8CO9)nc67)c(C(F)F)n5)cc4)CC3)c21 (some centres unmarked) [I-370],10 to 100 nM,> 200 nM,,
Cn1c(=O)n(C2CCC(=O)NC2=O)c2cccc(C#CCN3CCN(C[C@H]4CC[C@H](n5cc(NC(=O)c6cnn7ccc(N8CCN(CC(F)F)CC8)nc67)c(C(F)F)n5)CC4)CC3)c21 (some centres unmarked) [I-409],> 200 nM,> 200 nM,,
Cn1c(=O)n(C2CCC(=O)NC2=O)c2cccc(CC[C@@H]3CN(Cc4ccc(-n5cc(NC(=O)c6cnn7cccnc67)c(C(F)F)n5)cc4)CCO3)c21 (some centres unmarked) [I-398],> 200 nM,> 200 nM,,
Cn1c(=O)n(C2CCC(=O)NC2=O)c2cccc(C#CCN3CCN(C[C@H]4CC[C@H](n5cc(NC(=O)c6cnn7ccc(C(C)(C)C)nc67)c(C(F)F)n5)CC4)CC3)c21 (some centres unmarked) [I-219],> 200 nM,> 200 nM,,
Cn1c(=O)n(C2CCC(=O)NC2=O)c2cccc(C#CCN3CCN(C[C@H]4CC[C@H](n5cc(NC(=O)c6cnn7ccc(N8CC9COCC9C8)nc67)c(C(F)F)n5)CC4)CC3)c21 (some centres unmarked) [I-323],> 200 nM,> 200 nM,,
Cn1c(=O)n(C2CCC(=O)NC2=O)c2cccc(C#CCOC3CCN(C[C@H]4CC[C@H](n5cc(NC(=O)c6ccn7ccc(N8C[C@@H]9C[C@H]8CO9)nc67)c(C(F)F)n5)CC4)CC3)c21 (some centres unmarked) [I-232],> 200 nM,> 200 nM,,
Cn1c(=O)n(C2CCC(=O)NC2=O)c2cccc(C#CCN3CCN(Cc4ccc(-n5cc(NC(=O)c6cnn7ccc(N8C[C@H]9C[C@@H]8CO9)nc67)c(C(F)F)n5)cc4)CC3)c21 (some centres unmarked) [I-369],< 10 nM,> 200 nM,,
C[C@H]1CN(c2ccn3ncc(C(=O)Nc4cn([C@H]5CC[C@H](CN6CCN(CC#Cc7cccc8c7n(C)c(=O)n8C7CCC(=O)NC7=O)CC6)CC5)nc4C(F)F)c3n2)C[C@H](C)O1 (some centres unmarked) [I-430],> 200 nM,< 10 nM,,
CN(C[C@H]1CC[C@H](n2cc(NC(=O)c3cnn4ccc(N5C[C@H]6CC[C@@H](C5)O6)nc34)c(C(F)F)n2)CC1)C1CCN(c2cccc3c2n(C)c(=O)n3C2CCC(=O)NC2=O)CC1 (some centres unmarked) [I-360],> 200 nM,< 10 nM,,
Cn1c(=O)n(C2CCC(=O)NC2=O)c2cccc(C#CCO[C@H]3CCN(C[C@H]4CC[C@H](n5cc(NC(=O)c6cnn7ccc(N8C[C@H]9C[C@@H]8CO9)nc67)c(C(F)F)n5)CC4)C3)c21 (some centres unmarked) [I-21],< 10 nM,> 200 nM,,
Cn1c(=O)n(C2CCC(=O)NC2=O)c2cccc(C#COCC3CCN([C@H]4CC[C@H](n5cc(NC(=O)c6cnn7ccc(N8C[C@H]9C[C@@H]8CO9)nc67)c(C(F)F)n5)CC4)CC3)c21 (some centres unmarked) [I-341],> 200 nM,> 200 nM,,
O=C1CCN(c2cncc3c(C#CCO[C@@H]4CCN(C[C@H]5C[C@H](n6cc(NC(=O)c7cnn8ccc(N9C[C@H]%10C[C@@H]9CO%10)nc78)c(C(F)F)n6)C5)C[C@@H]4F)cccc23)C(=O)N1 [I-52],< 10 nM,> 200 nM,,

# Other lines, results leading:
DC50 [1],DC50 [2],"DC50 (4 hrs incubation, read-out: IRAK4 degradation in OCI-LY10 at 4 hrs: DC50)","DC50 (24 hrs incubation, read-out: IRAK4 degradation in OCI-LY10 at 24 hrs: DC50)",Compound
> 200 nM,< 10 nM,,,Cn1c(=O)n(C2CCC(=O)NC2=O)c2cccc([C@@H]3CCN(C[C@H]4CC[C@H](n5cc6cc(NC(=O)c7cccc(C#N)n7)ccc6n5)CC4)C[C@H]3F)c21 (some centres unmarked) [I-625]
> 200 nM,> 200 nM,,,COc1cc2nn([C@H]3CC[C@H](CN4CC[C@H](c5cccc6c5n(C)c(=O)n6C5CCC(=O)NC5=O)[C@@H](F)C4)CC3)cc2cc1NC(=O)c1cccc(C(F)(F)F)n1 (some centres unmarked) [I-784]
> 200 nM,> 200 nM,,,COc1cc2nn([C@H]3CC[C@H](CN4CC[C@@H](c5cccc6c5n(C)c(=O)n6C5CCC(=O)NC5=O)[C@H](F)C4)CC3)cc2cc1NC(=O)c1cccc(C(F)(F)F)n1 (some centres unmarked) [I-783]
> 200 nM,< 10 nM,,,Cn1c(=O)n(C2CCC(=O)NC2=O)c2cccc([C@@H]3CCN(C[C@H]4CC[C@H](n5cc6cc(NC(=O)c7cccc(C(F)F)n7)ncc6n5)CC4)C[C@H]3F)c21 (some centres unmarked) [I-641]
> 200 nM,> 200 nM,,,Cn1c(=O)n(C2CCC(=O)NC2=O)c2cccc([C@H]3CCN(C[C@H]4CC[C@H](n5cc6cc(NC(=O)c7cccc(C#N)n7)c(C(C)(C)O)cc6n5)CC4)C[C@H]3F)c21 (some centres unmarked) [I-651]
> 200 nM,10 to 100 nM,,,CN(C[C@H]1CC[C@H](n2cc(NC(=O)c3cnn4ccc(N5C6COCC5C6)nc34)c(C(F)F)n2)CC1)C1CCN(c2cccc3c2n(C)c(=O)n3C2CCC(=O)NC2=O)CC1(F)F (some centres unmarked) [I-524]
> 200 nM,> 200 nM,,,CN(c1cccc2c1n(C)c(=O)n2C1CCC(=O)NC1=O)C1CN(C[C@H]2CC[C@H](n3cc4cc(NC(=O)c5cccc(C(F)(F)F)n5)ccc4n3)CC2)C1 (some centres unmarked) [I-699]
,,> 200 nM,> 200 nM,Cn1c(=O)n(C2CCC(=O)NC2=O)c2cccc(N3CCC(O[C@H]4CC[C@H](n5cc6cc(NC(=O)c7cccc(C(F)(F)F)n7)ccc6n5)CC4)C3)c21 (some centres unmarked) [I-794]
> 200 nM,> 200 nM,,,Cn1c(=O)n(C2CCC(=O)NC2=O)c2cccc(N3CC(F)(CN(C)[C@H]4CC[C@H](n5cc6cc(NC(=O)c7cccc(C(F)(F)F)n7)ccc6n5)CC4)C3)c21 (some centres unmarked) [I-790]
> 200 nM,< 10 nM,,,Cn1c(=O)n(C2CCC(=O)NC2=O)c2cccc(N3CC(F)(CN4CCN(C[C@H]5CC[C@H](n6cc(NC(=O)c7cnn8ccc(N9C[C@H]%10C[C@@H]9CO%10)nc78)c(C(F)F)n6)CC5)CC4)C3)c21 (some centres unmarked) [I-678]
> 200 nM,10 to 100 nM,,,CN(C[C@H]1CC[C@H](n2cc(NC(=O)c3cnn4ccc(N5CCOC(C)(C)C5)nc34)c(C(F)F)n2)CC1)C1CCN(c2cccc3c2n(C)c(=O)n3C2CCC(=O)NC2=O)CC1(F)F (some centres unmarked) [I-530]
> 200 nM,< 10 nM,,,Cc1cccc(C(=O)Nc2ccc3nn([C@H]4CC[C@H](CN5CC[C@@H](c6cccc7c6n(C)c(=O)n7C6CCC(=O)NC6=O)[C@H](F)C5)CC4)cc3c2)n1 (some centres unmarked) [I-727]
